Results reported in patent publication US20250327028A1, “ENGINEERED PLATELETS AS TARGETED PROTEIN DEGRADERS” (Wisconsin Alumni Research Foundation, priority 2024, published 2025).

Key:
[1] = system: HSP90α (Hsp90aa1) and HSP90β (Hsp90ab1); assay: Streptavidin-mediated immunoprecipitation and mass spectrum analysis of biotin-labeled protein in 4T1 lysate; format: cell-based, murine; conditions: 4T1 cell lysate
Procedure: Streptavidin-mediated immunoprecipitation and mass spectrum analysis: 2×10^6 4T1 cells were seeded in T75 culture flasks and cultured for 24 h. Then, the medium in the corresponding flasks was replaced with 15 mL of blank medium with DMSO or HAC-B (10 μM). Following incubation for another 2 h, the cells were washed with cold PBS twice and digested with 2 mL trypsin. The cell pellets were collected through centrifugation at 1,200 rpm for 3 min and washed with cold PBS. The final pellets were directly lysed on ice with IP lysis buffer (50 mM Tris-HCl, pH 7.4; 150 mM NaCl; 2 mM EDTA; 1% NP-40) containing PMSF (1 mM) and the phosphatase inhibitor cocktail for 30 min. The lysates were collected and centrifuged at 10,000 g for 10 minutes at 4° C. The total proteins in the supernatants were quantified through the BCA assay, and 20 μL of lysate supernatants were saved as the input samples. To totally pull down the biotin-labeled contents, 150 μL of Pierce™ streptavidin magnetic beads was added to each supernatant, and the resulting mixtures were incubated at 4° C. with a gentle rotation overnight. Subsequently, the supernatant was discarded by placing the tubes on a magnetic rack, and the obtained magnetic beads were washed with IP lysis buffer three times. […] Finally, the bands were treated with ECL western blot substrate and detected by the iBright™ imaging system. […]

HSP90 = HSP90 expression in cancer cells after iHAC treatment; format: cell-based; conditions: all the cancer cells, various concentrations
Excerpt: Immunoblot analysis: Immunoblot analysis was used to evaluate the expression of BRD4, HSP90, HSP90a, and PD-L1 in 4T1, WT MDA-MB-231, HSP90α-KO MDA-MB-231 or PEA-10 cells after various treatments and also served as the detection method for IP or co-IP experiments. The procedures for preparing IP or co-IP samples were indicated in the relevant experimental parts.
Sample preparation for various cancer cells after free HAC treatment: Various cells, including 4T1, WT MDA-MB-231, HSP90α-KO MDA-MB-231, or PEA-10 cells, were seeded in 6-well culture plates with a density of 5×10^4 cells in each well and cultured for 24 h. Then, if HAI pretreatment was performed, the cells were incubated in the HAI-containing blank medium at different concentrations for 2 h and washed with PBS twice before the following treatments. […]
General procedures for immunoblot analysis: After a 30-min lysis, the lysates were centrifuged at 10,000 g for 10 minutes at 4° C., and the corresponding supernatants were collected, followed by quantification of the total proteins in the supernatant through the BCA assay. […] Finally, the bands were treated with electrochemiluminescence (ECL) western blot substrate, detected by the iBright™ imaging system and quantified with ImageJ software. […]

SMILES: N#CCN(C(=O)CCCC[C@@H]1SC[C@@H]2NC(=O)N[C@@H]21)S(=O)(=O)c1ccc(C(=O)NCCCn2c(Sc3cc4c(cc3I)OCO4)nc3c(N)ncnc32)cc1 [HAC-B, N-(3-(6-amino-8-((6-iodobenzo[d][1,3]dioxol-5-yl)thio)-9H-purin-9-yl)propyl)-4-(N-(cyanomethyl)-N-(5-((3aS,4S,6aR)-2-oxohexahydro-1H-thieno[3,4-d]imidazol-4-yl)pentanoyl)sulfamoyl)benzamide]
- biotin-labeled protein immunoprecipitated by streptavidin beads (gel, immunoblot) ([1]; 10 μM, 2 h, vs sample without treatment): an additional HSP90 band appeared in the gel
- protein identification on IP samples through mass spectrum ([1]; streptavidin IP): could bind to both isoforms of HSP90, HSP90α (Hsp90aa1) and HSP90β (Hsp90ab1), with a favorable selectivity

SMILES: Cc1sc2c(c1C)C(c1ccc(Cl)cc1)=N[C@@H](CC(=O)NCc1cn(CCCC(=O)N(CC#N)S(=O)(=O)c3ccc(C(=O)NCCCn4c(Sc5cc6c(cc5I)OCO6)nc5c(N)ncnc54)cc3)nn1)c1nnc(C)n1-2 [iHAC, (S)—N-(3-(6-amino-8-((6-iodobenzo[d][1,3]dioxol-5-yl)thio)-9H-purin-9-yl)propyl)-4-(N-(4-(4-((2-(4-(4-chlorophenyl)-2,3,9-trimethyl-6H-thieno[3,2-f][1,2,4]triazolo[4,3-a][1,4]diazepin-6-yl)acetamido)methyl)-1H-1,2,3-triazol-1-yl)butanoyl)-N-(cyanomethyl)sulfamoyl)benzamide]
- HSP90 expression (HSP90): maintained a relatively stable HSP90 expression
